The results in this text go back to publication PMC4890880 (ACS infectious diseases, 2016).

The inhibition is the drop in the measured response relative to a control, in per cent.

Where two headings read alike, the source gives them in different places. Bounds are passed on as bounds.

For one assay, the system named is HepG2-A16-CD81EGFP cells. Description: cells. The conditions noted are these: Homo sapiens; for IC50: HepG2, read-out: Tox IC50; for inhibition at 50 µM: HepG2, read-out: Tox max inhibition (%) @ 50 uM.
In assay [1] the test system is Plasmodium berghei (Pb-Luc) exoerythrocytic-stage parasites. Kind of assay: microbe, parasite or virus in culture. The conditions noted are these: for IC50: read-out: PbLuc IC50, dose response, 1/3 dilutions, max conc. 10 or 50 uM, unit inferred.
Where [2] appears, read: HepG2, read-out: HepG2 Tox% @ 50 uM rep1.
Setting [3] is: read-out: Inhibition% @ 50 uM rep1.
The mark [4] stands for this setting: read-out: Inhibition% @ 50 uM rep2.
Where [5] appears, read: read-out: PbLuc max inhibition (%) @ 50 uM.
The mark [6] stands for this setting: HepG2, read-out: HepG2 Tox% @ 50 uM rep2.

With `Cc1cc(N(C)C)nc(Nc2ccc(NC(=O)Nc3ccccc3)cc2)n1` [MMV020243], the cytotoxicity at 50 µM in the assay on HepG2-A16-CD81EGFP cells (setting [2]) amounted to 96%. For the same compound, the values for the IC50 (in the assay on HepG2-A16-CD81EGFP cells; in assay [1]) were 15.7 µM and 1450 nM, respectively. Also, the inhibition at 50 µM with HepG2-A16-CD81EGFP cells stood at 100%; in assay [1] (setting [3]), 96%; in assay [1] (setting [4]) it was 99%; in assay [1] (setting [5]), 100%.

For `Cc1ccc(-c2nc3ccccc3o2)cc1NCc1cc(Cc2ccccc2)ccc1O` [MMV020912], the cytotoxicity at 50 µM in the assay with HepG2-A16-CD81EGFP cells (setting [2]) amounted to 13%. Also, the figures for the inhibition at 50 µM in assay [1] (setting [3]) and in assay [1] (setting [4]) were 75% and 76%, respectively.

Take `COc1cc2c(cc1OC)C1=NNC(=O)C1=NC(C)(C)C2` [MMV084940]: the cytotoxicity at 50 µM in the assay on HepG2-A16-CD81EGFP cells (setting [2]) stood at 99%; in the assay with HepG2-A16-CD81EGFP cells (setting [6]) it was 100%. Besides, the IC50 with HepG2-A16-CD81EGFP cells was 31.3 µM; in assay [1] it was 4020 nM. In addition, the inhibition at 50 µM with HepG2-A16-CD81EGFP cells is 94%; in assay [1] (setting [3]), 103%; in assay [1] (setting [4]), 102%; in assay [1] (setting [5]), 99%.

For the compound `COc1ccccc1N=C1C(=O)c2ccccc2C(O)=C1N1CCCCC1` [MMV085203], the cytotoxicity at 50 µM with HepG2-A16-CD81EGFP cells (setting [2]) is 94%; with HepG2-A16-CD81EGFP cells (setting [6]) it was 97%. The IC50 in the assay with HepG2-A16-CD81EGFP cells amounted to 3.13 µM; in assay [1] it was 564 nM. For the same compound, the inhibition at 50 µM in the assay on HepG2-A16-CD81EGFP cells is 96%; in assay [1] (setting [3]) it was 103%; in assay [1] (setting [4]), 105%; in assay [1] (setting [5]) it was 100%.

Take `Cc1ccc(C(=O)c2oc3ccc4c(C)cc(=O)oc4c3c2C)cc1` [MMV086103]: the cytotoxicity at 50 µM with HepG2-A16-CD81EGFP cells (setting [2]) is 40%. Moreover, the inhibition at 50 µM in assay [1] (setting [3]) and in assay [1] (setting [4]) was 103% in each case.

Regarding `CC(C)(C)c1ccc(C(=O)Nc2nc3ccccc3s2)cc1` [MMV142383], the figures for the cytotoxicity at 50 µM with HepG2-A16-CD81EGFP cells (setting [2]) and with HepG2-A16-CD81EGFP cells (setting [6]) were 89% and 96%, respectively. Further, the inhibition at 50 µM came to 103% in assay [1] (setting [3]) and 105% in assay [1] (setting [4]).

As to `COc1ccc2nc(C)cc(Nc3ccccc3O)c2c1` [MMV274073], the cytotoxicity at 50 µM with HepG2-A16-CD81EGFP cells (setting [2]) came to 59%; with HepG2-A16-CD81EGFP cells (setting [6]), 88%. Besides, the inhibition at 50 µM in assay [1] (setting [3]) and in assay [1] (setting [4]) was 100% throughout.

Consider `CCn1nc(-c2ccc(C(=O)OC)cc2)nc2c(=O)n(C)c(=O)nc1-2` [MMV306025], for which the cytotoxicity at 50 µM is 99% with HepG2-A16-CD81EGFP cells (setting [2]) and 101% in the assay with HepG2-A16-CD81EGFP cells (setting [6]). Moreover, the inhibition at 50 µM in assay [1] (setting [3]) was 104%; in assay [1] (setting [4]), 105%.

`CCOc1c(Cl)cc(CNCC(O)c2ccccc2)cc1OC` (stereo not drawn) [MMV396632]: the cytotoxicity at 50 µM with HepG2-A16-CD81EGFP cells (setting [2]) turned out to be 82%; in the assay on HepG2-A16-CD81EGFP cells (setting [6]), 76%. Further, the inhibition at 50 µM turned out to be 99% in assay [1] (setting [3]) and 96% in assay [1] (setting [4]).

For `CCOc1cc(CNC(C)C(O)c2ccccc2)cc(Cl)c1OCC` (stereo not drawn) [MMV396633], the cytotoxicity at 50 µM in the assay on HepG2-A16-CD81EGFP cells (setting [2]) was 98%; in the assay on HepG2-A16-CD81EGFP cells (setting [6]) it was 99%. The inhibition at 50 µM came out at 101% in assay [1] (setting [3]) and 102% in assay [1] (setting [4]).

Take `Cc1sc(NC(=O)c2ccco2)c(C(c2cccnc2)N2CCC(Cc3ccccc3)CC2)c1C` (stereo not drawn) [MMV396663]: the cytotoxicity at 50 µM in the assay on HepG2-A16-CD81EGFP cells (setting [2]) worked out at 82%. Further, the inhibition at 50 µM in assay [1] (setting [3]) and in assay [1] (setting [4]) was 103% throughout.

Turning to `CCOC(=O)c1c(C)n(-c2ccccc2)c2ccc(OC(=O)c3cc(OC)c(OC)c(OC)c3)cc12` [MMV396664], the cytotoxicity at 50 µM in the assay on HepG2-A16-CD81EGFP cells (setting [2]) came to 61%. The results for the inhibition at 50 µM in assay [1] (setting [3]) and in assay [1] (setting [4]) were 100% and 101%, respectively.

Turning to `COc1cc(C(=O)Nc2nc3c(cc4c5c(cccc53)CC4)s2)cc(OC)c1OC` [MMV396665], in the assay on HepG2-A16-CD81EGFP cells (setting [2]), the cytotoxicity at 50 µM was found to be 11%. In addition, the values for the inhibition at 50 µM in assay [1] (setting [3]) and in assay [1] (setting [4]) were 76% and 80%, respectively.

With `O=C(NCC(c1ccsc1)N1CCCCCC1)c1ccc(C(F)(F)F)cc1` (stereo not drawn) [MMV396672], the cytotoxicity at 50 µM was 98% in the assay on HepG2-A16-CD81EGFP cells (setting [2]) and 99% in the assay with HepG2-A16-CD81EGFP cells (setting [6]). For the same compound, the inhibition at 50 µM in assay [1] (setting [3]) and in assay [1] (setting [4]) was 104% throughout.

With `O=C(CSc1nccn2nc(-c3ccccc3)cc12)Nc1cc(C(F)(F)F)ccc1Cl` [MMV396678], the cytotoxicity at 50 µM in the assay on HepG2-A16-CD81EGFP cells (setting [2]) is -13%; in the assay with HepG2-A16-CD81EGFP cells (setting [6]), -3%. In addition, the inhibition at 50 µM in assay [1] (setting [3]) amounted to 68%; in assay [1] (setting [4]) it was 82%.

With `C[n+]1c2ccccc2nc2ccc(NCCO)cc21` [MMV396693], the results for the cytotoxicity at 50 µM with HepG2-A16-CD81EGFP cells (setting [2]) and in the assay with HepG2-A16-CD81EGFP cells (setting [6]) were 81% and 93%, respectively. Further, the inhibition at 50 µM in assay [1] (setting [3]) came out at 102%; in assay [1] (setting [4]), 104%.

`CCN(CC)CCNc1ncnc2c1[nH]c1ccc(Cl)cc12` [MMV396703]: the cytotoxicity at 50 µM worked out at 95% in the assay with HepG2-A16-CD81EGFP cells (setting [2]) and 98% in the assay with HepG2-A16-CD81EGFP cells (setting [6]). Further, the inhibition at 50 µM in assay [1] (setting [3]) turned out to be 103%; in assay [1] (setting [4]), 106%.

Consider `CN1CCN(c2ncnc3c2[nH]c2ccc(Cl)cc23)CC1` [MMV396704], for which the cytotoxicity at 50 µM in the assay with HepG2-A16-CD81EGFP cells (setting [2]) amounted to 32%. Further, the inhibition at 50 µM in assay [1] (setting [3]) came out at 99%; in assay [1] (setting [4]) it was 101%.

Regarding `COc1cccc(Cn2c(Oc3ccccc3)nc3c2c(=O)n(C)c(=O)n3C)c1` [MMV396705], in the assay with HepG2-A16-CD81EGFP cells (setting [2]), the cytotoxicity at 50 µM was 47%. In addition, the inhibition at 50 µM in assay [1] (setting [3]) and in assay [1] (setting [4]) was 99% in each case.

Consider `COc1ccc(CCN2C(=O)c3[nH]nc(-c4cc(Cl)c(C)cc4O)c3C2c2ccccc2F)cc1` (stereo not drawn) [MMV396717], for which, in the assay with HepG2-A16-CD81EGFP cells (setting [2]), the cytotoxicity at 50 µM worked out at 97%. Besides, the inhibition at 50 µM in assay [1] (setting [3]) and in assay [1] (setting [4]) was 101% each time.

Consider `COc1ccc2c(c1)C1(Nc3ccccc3-c3nc4ccccc4n31)C(=O)N2` (stereo not drawn) [MMV396749], for which the cytotoxicity at 50 µM came to 88% in the assay with HepG2-A16-CD81EGFP cells (setting [2]) and 94% in the assay with HepG2-A16-CD81EGFP cells (setting [6]). In addition, the IC50 with HepG2-A16-CD81EGFP cells is > 50 µM; in assay [1], 15900 nM. The inhibition at 50 µM in the assay on HepG2-A16-CD81EGFP cells amounted to 45%; in assay [1] (setting [3]), 102%; in assay [1] (setting [4]) it was 102%; in assay [1] (setting [5]) it was 98%.

For the compound `O=C(NNc1cc(N2CCCC2)nc(N2CCCC2)n1)c1ccccc1` [MMV396770], the cytotoxicity at 50 µM in the assay on HepG2-A16-CD81EGFP cells (setting [2]) is 29%. Further, the results for the inhibition at 50 µM in assay [1] (setting [3]) and in assay [1] (setting [4]) were 97% and 98%, respectively.

As to `CC(C)(C)CC(C)(C)NCC(O)COc1ccc(Cl)cc1Cl` (stereo not drawn) [MMV396794], the cytotoxicity at 50 µM came to 99% in the assay on HepG2-A16-CD81EGFP cells (setting [2]) and 100% in the assay with HepG2-A16-CD81EGFP cells (setting [6]). For the same compound, the IC50 is 15.1 µM with HepG2-A16-CD81EGFP cells and 15100 nM in assay [1]. The inhibition at 50 µM in the assay with HepG2-A16-CD81EGFP cells amounted to 93%; in assay [1] (setting [3]) it was 101%; in assay [1] (setting [4]), 104%; in assay [1] (setting [5]), 92%.

With `COc1ccc(-c2c(C)nn3c(N)c(C#N)cnc23)cc1OC` [MMV396797], the cytotoxicity at 50 µM is 72% in the assay with HepG2-A16-CD81EGFP cells (setting [2]) and 77% with HepG2-A16-CD81EGFP cells (setting [6]). Also, the figures for the IC50 (in the assay on HepG2-A16-CD81EGFP cells; in assay [1]) were 25.8 µM and 1630 nM, respectively. Also, the inhibition at 50 µM amounted to 55% with HepG2-A16-CD81EGFP cells, 104% in assay [1] (setting [3]), 106% in assay [1] (setting [4]) and 101% in assay [1] (setting [5]).

Turning to `Cc1cccc(-n2ncc3c(=O)[nH]c(-n4nc(C)cc4NC(=O)c4cc5ccccc5o4)nc32)c1` [MMV403679], the cytotoxicity at 50 µM in the assay with HepG2-A16-CD81EGFP cells (setting [2]) worked out at 38%; in the assay with HepG2-A16-CD81EGFP cells (setting [6]) it was 47%. For the same compound, the inhibition at 50 µM in assay [1] (setting [3]) and in assay [1] (setting [4]) was 100% in each case.

`O=C1C2=C(Nc3ccccc3SC2c2ccccc2)c2ccccc21` (stereo not drawn) [MMV645672]: the cytotoxicity at 50 µM in the assay with HepG2-A16-CD81EGFP cells (setting [2]) turned out to be 87%. Besides, the inhibition at 50 µM in assay [1] (setting [3]) and in assay [1] (setting [4]) was 104% in each case.
